Source: patent US9957270B2, “Fused pyrimidine-based hydroxamate derivatives” (Agency for Science, Technology and Research, priority 2014, dated 2018)

Columns and labels:
[1] = tested on: COLO 205; test: cells; settings: Homo sapiens, COLO 205, 72 h, read-out: In Vitro Cellular IC50 COLO 205
[2] = tested on: MV-4-11; test: cells; settings: Homo sapiens, MV4-11, 72 h, read-out: In Vitro Cellular IC50 MV-4-11
[3] = tested on: MCF7; test: Anti-proliferative assay (cellular IC50), MCF7; settings: Homo sapiens, MCF7, 72 h, read-out: In Vitro Cellular IC50 MCF7
Protocol: Cells were cultivated at 37° C., 5% CO2 in media containing 10% FBS and 2 mM glutamine Cells were routinely monitored with MycoAlert™ PLUS Mycoplasma Detection Kit (Lonza Walkersville, Inc.) to make sure they were mycoplasma free. Antibiotics (100 U/mL of penicillin and 100 μg/mL of streptomycin) were only added to the media used for compound dilution and cells in 96-well assay plates.
For a typical screening experiment, cells (100 μL/well) are inoculated into 96 well microtiter plates at plating densities ranging from 2,000 to 30,000 cells/well depending on the doubling time of individual cell lines and assay linearity. […] Suspension cells are treated with test compounds immediately after cell inoculation.
Test compounds are serially diluted (3-fold or 4-fold, 8-concentration) using the same media and added to the plates (15 to 25 μL/well). After 72 h of cultivation, the plates are assayed for cell cytotoxicity/viability by using the following two methods.
Cells in plates are fixed with cold trichloroacetic acid (TCA) (50% w/v in DI water, 1/4 volume of the medium in each well), and incubated at 4° C. for 1 h (adherent cells) or 2 h (suspension cells). The plates are washed 5 times (tap water×3, DI water×2) and air-dried. SRB solution 0.4% (w/v) in 1% acetic acid is added to each well (60 μL/well) and the plates are incubated at room temperature for 30 min, then washed with 1% acetic acid solution 4 times, and air-dried.
The plates are added CellTiter-Glo® Reagent (95 μL/well) and read the luminescence on a BioTek H4 reader per manufacture's protocol.
The raw data are processed using BioTek's Software Gen5 (v2.03.01) to generate inhibitory IC50 values.

[4] = tested on: K-562; test: Anti-proliferative assay (cellular IC50), K-562; settings: Homo sapiens, K562, 72 h, read-out: In Vitro Cellular IC50 K-562
[5] = target: HDAC (HeLa nuclear extracts); test: HDAC enzyme assay, HeLa nuclear extracts; settings: read-out: In Vitro Enzymatic IC50 HDAC (HeLa)
[6] = target: HDAC1 (Homo sapiens, UniProt Q13547); test: HDAC enzyme assay, recombinant HDAC1
[7] = tested on: PC-3; test: Anti-proliferative assay (cellular IC50), PC-3; settings: Homo sapiens, PC-3, 72 h, read-out: In Vitro Cellular IC50 PC-3

Chain of HDAC1 (Q13547 whole entry): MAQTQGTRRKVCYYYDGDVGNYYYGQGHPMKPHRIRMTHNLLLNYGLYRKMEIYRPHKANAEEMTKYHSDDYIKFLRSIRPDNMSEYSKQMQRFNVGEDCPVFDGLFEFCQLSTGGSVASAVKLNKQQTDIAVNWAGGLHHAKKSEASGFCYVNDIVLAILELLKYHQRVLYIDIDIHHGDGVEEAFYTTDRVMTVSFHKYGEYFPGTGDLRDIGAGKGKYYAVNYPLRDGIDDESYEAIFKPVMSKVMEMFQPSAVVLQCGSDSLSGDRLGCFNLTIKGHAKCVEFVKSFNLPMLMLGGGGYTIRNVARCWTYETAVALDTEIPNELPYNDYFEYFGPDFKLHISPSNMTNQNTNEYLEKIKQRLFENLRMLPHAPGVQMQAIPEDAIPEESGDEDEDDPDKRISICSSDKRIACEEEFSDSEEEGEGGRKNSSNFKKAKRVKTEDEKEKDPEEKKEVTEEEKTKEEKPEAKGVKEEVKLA

IC50 [1] [µM]	IC50 [2] [µM]	IC50 [5] [µM]	Structure (SMILES)	other results
< 0.5	> 10	–	Cc1c(CN2CCN(C(=O)[C@H](C)O)CC2)sc2c(N3CCOCC3)nc(-c3cnc(N)nc3)nc12 [GDC-0980, reference compound]	IC50 [3]: 2 to 10 µM; IC50 [4]: 2 to 10 µM
–	–	0.01 to 0.1	CC(C)n1cnc2c(-c3cccc(NC(=O)CCCCCCCC(=O)NO)c3)nc(N3CCOCC3)nc21 [compound 8, N^1-hydroxy-N^9-(3-(9-isopropyl-2-morpholino-9H-purin-6-yl)phenyl)nonanediamide]	–
–	–	0.1 to 1	CC(C)n1cnc2c(-c3cccc(NC(=O)CCCC(=O)NO)c3)nc(N3CCOCC3)nc21 [compound 9, N^1-hydroxy-N^5-(3-(9-isopropyl-2-morpholino-9H-purin-6-yl)phenyl)glutaramide]	–
–	–	0.01 to 0.1	CC(C)n1cnc2c(-c3cccc(OCCCCCC(=O)NO)c3)nc(N3CCOCC3)nc21 [compound 11, N-hydroxy-6-(3-(9-isopropyl-2-morpholino-9H-purin-6-yl)phenoxy)hexanamide]	–
–	–	0.01 to 0.1	CC(C)n1cnc2c(-c3cccc(OCCCCCCC(=O)NO)c3)nc(N3CCOCC3)nc21 [compound 12, N-hydroxy-7-(3-(9-isopropyl-2-morpholino-9H-purin-6-yl)phenoxy)heptanamide]	–
–	–	1 to 10	CC(C)n1cnc2c(-c3ccc(OCCCC(=O)NO)cc3)nc(N3CCOCC3)nc21 [compound 13, N-hydroxy-4-(4-(9-isopropyl-2-morpholino-9H-purin-6-yl)phenoxy)butanamide]	–
–	–	0.1 to 1	CC(C)n1cnc2c(-c3ccc(OCCCCC(=O)NO)cc3)nc(N3CCOCC3)nc21 [compound 14, N-hydroxy-5-(4-(9-isopropyl-2-morpholino-9H-purin-6-yl)phenoxy)pentanamide]	–
–	–	0.1 to 1	CC(C)n1cnc2c(-c3ccc(OCCCCCC(=O)NO)cc3)nc(N3CCOCC3)nc21 [compound 15, N-hydroxy-6-(4-(9-isopropyl-2-morpholino-9H-purin-6-yl)phenoxy)hexanamide]	–
–	–	0.1 to 1	CC(C)n1cnc2c(-c3ccc(OCCCCCCC(=O)NO)cc3)nc(N3CCOCC3)nc21 [compound 16, N-hydroxy-7-(4-(9-isopropyl-2-morpholino-9H-purin-6-yl)phenoxy)heptanamide]	–
–	–	0.1 to 1	CC(C)n1cnc2c(-c3ccc(COCCCCC(=O)NO)cc3)nc(N3CCOCC3)nc21 [compound 20, N-hydroxy-5-((4-(9-isopropyl-2-morpholino-9H-purin-6-yl)benzyl)oxy)pentanamide]	–
–	–	0.1 to 1	CC(C)n1cnc2c(-c3ccc(COCCCCCC(=O)NO)cc3)nc(N3CCOCC3)nc21 [compound 21, N-hydroxy-6-((4-(9-isopropyl-2-morpholino-9H-purin-6-yl)benzyl)oxy)hexanamide]	–
–	–	1 to 10	CC(C)n1cnc2c(-c3ccc(COCCCCCCC(=O)NO)cc3)nc(N3CCOCC3)nc21 [compound 22, N-hydroxy-7-((4-(9-isopropyl-2-morpholino-9H-purin-6-yl)benzyl)oxy)heptanamide]	–
–	–	0.01 to 0.1	CC(C)n1cnc2c(-c3cccc(COCCCCC(=O)NO)c3)nc(N3CCOCC3)nc21 [compound 23, N-hydroxy-5-((3-(9-isopropyl-2-morpholino-9H-purin-6-yl)benzyl)oxy)pentanamide]	IC50 [6]: 0.01 to 0.1 µM
–	–	1 to 10	CCN(CC)c1nc2c(-c3cnc(N)nc3)nc(N3CCOCC3)nc2n1CCCC(=O)NO [compound 28, 4-(6-(2-aminopyrimidin-5-yl)-8-(diethylamino)-2-morpholino-9H-purin-9-yl)-N-hydroxybutanamide]	IC50 [6]: 1 to 10 µM
–	–	1 to 10	CC(C)n1cnc2c(-c3ccc(COCC(=O)NO)cc3)nc(N3CCOCC3)nc21 [compound 32, N-hydroxy-2-((4-(9-isopropyl-2-morpholino-9H-purin-6-yl)benzyl)oxy)acetamide]	–
–	–	1 to 10	CC(C)n1cnc2c(-c3ccc(OCC(=O)NO)cc3)nc(N3CCOCC3)nc21 [compound 33, N-hydroxy-2-(4-(9-isopropyl-2-morpholino-9H-purin-6-yl)phenoxy)acetamide]	–

IC50 [1] [µM]	IC50 [2] [µM]	IC50 [5] [µM]	Structure (SMILES)	other results
–	–	1 to 10	CC(C)n1cnc2c(-c3cccc(CN4CCC(C(=O)NO)CC4)c3)nc(N3CCOCC3)nc21 [compound 34, N-hydroxy-1-(3-(9-isopropyl-2-morpholino-9H-purin-6-yl)benzyl)piperidine-4-carboxamide]	–
–	–	0.1 to 1	CC(C)n1cnc2c(-c3cccc(CNCc4ccc(C(=O)NO)cc4)c3)nc(N3CCOCC3)nc21 [compound 35, N-hydroxy-4-(((3-(9-isopropyl-2-morpholino-9H-purin-6-yl)benzyl)amino)methyl)benzamide]	–
–	–	0.01 to 0.1	CC(C)n1cnc2c(-c3cccc(CNCCCCCC(=O)NO)c3)nc(N3CCOCC3)nc21 [compound 36, N-hydroxy-6-((3-(9-isopropyl-2-morpholino-9H-purin-6-yl)benzyl)amino)hexanamide]	–
–	–	0.1 to 1	CC(C)n1cnc2c(-c3cccc(COCC(=O)NO)c3)nc(N3CCOCC3)nc21 [compound 42, N-hydroxy-2-((3-(9-isopropyl-2-morpholino-9H-purin-6-yl)benzyl)oxy)acetamide]	–
2 to 10	0.5 to 2	0.1 to 1	COc1ccc(-c2nc(N3CCOCC3)c3ncn(CCCCC(=O)NO)c3n2)cn1 [compound 58, N-hydroxy-5-(2-(6-methoxypyridin-3-yl)-6-morpholino-9H-purin-9-yl)pentanamide]	IC50 [4]: 2 to 10 µM
> 10	0.5 to 2	1 to 10	Nc1ccc(-c2nc(N3CCOCC3)c3ncn(CCCCC(=O)NO)c3n2)cn1 [compound 59, 5-(2-(6-aminopyridin-3-yl)-6-morpholino-9H-purin-9-yl)-N-hydroxypentanamide]	IC50 [4]: > 10 µM
2 to 10	0.5 to 2	0.01 to 0.1	CC(C)n1cnc2c(-c3ccc(F)c(OCCCC(=O)NO)c3)nc(N3CCCC3)nc21 [compound 63, 4-(2-fluoro-5-(9-isopropyl-2-(pyrrolidin-1-yl)-9H-purin-6-yl)phenoxy)-N-hydroxybutanamide]	IC50 [7]: 2 to 10 µM
> 10	> 10	< 0.01	O=C(CCCCCn1cnc2c(N3CCOCC3)nc(-c3ccc(F)c(OCCO)c3)nc21)NO [compound 65, 6-(2-(4-fluoro-3-(2-hydroxyethoxy)phenyl)-6-morpholino-9H-purin-9-yl)-N-hydroxyhexanamide]	IC50 [7]: > 10 µM
2 to 10	0.5 to 2	0.1 to 1	CCCn1cnc2c(-c3ccc(F)c(OCCCC(=O)NO)c3)nc(N3CCCC3)nc21 [compound 66, 4-(2-fluoro-5-(9-propyl-2-(pyrrolidin-1-yl)-9H-purin-6-yl)phenoxy)-N-hydroxybutanamide]	IC50 [7]: 2 to 10 µM
2 to 10	0.5 to 2	0.1 to 1	CCn1cnc2c(-c3ccc(F)c(OCCCC(=O)NO)c3)nc(N3CCOCC3)nc21 [compound 68, 4-(5-(9-ethyl-2-morpholino-9H-purin-6-yl)-2-fluorophenoxy)-N-hydroxybutanamide]	IC50 [7]: 2 to 10 µM
2 to 10	0.5 to 2	0.1 to 1	CCCn1cnc2c(-c3ccc(F)c(OCCCC(=O)NO)c3)nc(N3CCOCC3)nc21 [compound 69, 4-(2-fluoro-5-(2-morpholino-9-propyl-9H-purin-6-yl)phenoxy)-N-hydroxybutanamide]	IC50 [7]: 2 to 10 µM
–	–	–	CC(C)n1c(NCc2ccc(C(=O)NO)cc2)nc2c(-c3cnc(N)nc3)nc(N3CCOCC3)nc21 [compound 80, 4-(((6-(2-aminopyrimidin-5-yl)-9-isopropyl-2-morpholino-9H-purin-8-yl)amino)methyl)-N-hydroxybenzamide]	IC50 [6]: 0.1 to 1 µM
2 to 10	0.5 to 2	1 to 10	CCn1c(CN(C)Cc2ccc(/C=C/C(=O)NO)cc2)nc2c(N3CCOCC3)nc(-c3ccc(OC)nc3)nc21 [compound 93, (E)-3-(4-((((9-ethyl-2-(6-methoxypyridin-3-yl)-6-morpholino-9H-purin-8-yl)methyl)(methyl)amino)methyl)phenyl)-N-hydroxyacrylamide]	IC50 [3]: 2 to 10 µM; IC50 [7]: 2 to 10 µM; IC50 [4]: 2 to 10 µM
2 to 10	0.5 to 2	0.1 to 1	CCn1c(CN(C)Cc2ccc(/C=C/C(=O)NO)cc2)nc2c(N3CCOCC3)nc(-c3ccc(NS(C)(=O)=O)cc3)nc21 [compound 94, (E)-3-(4-((((9-ethyl-2-(4-(methylsulfonamido)phenyl)-6-morpholino-9H-purin-8-yl)methyl)(methyl)amino)methyl)phenyl)-N-hydroxyacrylamide]	IC50 [4]: 2 to 10 µM
> 10	0.5 to 2	0.1 to 1	CCn1c(CN(C)Cc2ccc(/C=C/C(=O)NO)cc2)nc2c(N3CCOCC3)nc(Cl)nc21 [compound 95, (E)-3-(4-((((2-chloro-9-ethyl-6-morpholino-9H-purin-8-yl)methyl)(methyl)amino)methyl)phenyl)-N-hydroxyacrylamide]	IC50 [4]: 2 to 10 µM
2 to 10	0.5 to 2	< 0.01	O=C(CCCCCCn1cnc2c(N3CCCC3)nc(N3CCCC3)nc21)NO [compound 99, 7-(2,6-di(pyrrolidin-1-yl)-9H-purin-9-yl)-N-hydroxyheptanamide]	IC50 [7]: 2 to 10 µM
